# Values quoted from earlier work, collected in patent publication US20050013858A1, “Oral pharmaceutical compositions containing terbinafine” (priority 2001, published 2005).
# Key:
# [1] = target: CYP2D6 (Homo sapiens, UniProt P10635)
# [2] = steady state, in comparison to the single dose
# Chain of CYP2D6 (P10635 whole entry): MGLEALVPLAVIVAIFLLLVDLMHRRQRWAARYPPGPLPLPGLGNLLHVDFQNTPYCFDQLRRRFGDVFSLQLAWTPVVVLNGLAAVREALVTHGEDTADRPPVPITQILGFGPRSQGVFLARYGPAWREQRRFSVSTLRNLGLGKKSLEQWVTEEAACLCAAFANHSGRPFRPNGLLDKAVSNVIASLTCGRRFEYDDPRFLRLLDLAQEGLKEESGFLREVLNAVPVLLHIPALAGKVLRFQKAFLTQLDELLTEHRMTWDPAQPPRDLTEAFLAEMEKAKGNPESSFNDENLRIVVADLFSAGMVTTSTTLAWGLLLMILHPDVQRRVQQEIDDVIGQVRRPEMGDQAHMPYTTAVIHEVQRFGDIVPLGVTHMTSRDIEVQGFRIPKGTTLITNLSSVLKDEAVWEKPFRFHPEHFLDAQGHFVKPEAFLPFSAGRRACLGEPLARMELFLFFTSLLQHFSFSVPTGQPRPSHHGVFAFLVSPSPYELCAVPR
smiles,measurement,setting,value
CN(C/C=C/C#CC(C)(C)C)Cc1cccc2ccccc12 [terbinafine],inhibition of CYP2D6,[1],potent inhibitor
same,increase in AUC,administered with a fat-rich meal,42%
same,effective half-life,in vivo,ca. 36 hours
same,reduction of clearance,patients with renal impairment (creatinine clearance ≤50 ml/min) or hepatic cirrhosis,approximately 50%
same,area under the curve over 24 hours (AUC),single 250 mg terbinafine dose,about 4.76 microgram.hour/millilitre
same,factor of AUC increase in steady state versus single dose,[2],2.5
same,increase of Cmax in steady state versus single dose,[2],25%
